Measurements taken from patent US7691392B2 (Kosan Biosciences Incorporated, priority 2005, dated 2010).
“And” between values parts separate entries of the source, which are not always exact repeats. Equal entries are not always repeated. “Also recorded” adds a separate entry of the source.

Legend:
[1] = Plasma pharmacokinetics of 17-AAG and 17-AG in the open-label dose escalating trial in MM patients; conditions: for Cmax: iv
Experimental: The total number of PK samples collected was approximately 110 mL of whole blood (7-8 tablespoons). If a patient experienced a potentially drug-related SAE, additional PK samples were collected. Blood was drawn from the contralateral arm to the infusion site using an indwelling catheter to avoid multiple needle sticks. […] The blood tube was inverted several times, and the tube placed in wet ice immediately pending separation of the plasma. If a catheter was used for blood collection, the fluid in the catheter was completely withdrawn prior to each sample collection and discarded. Plasma samples were kept on wet ice during collection and centrifugation. Plasma samples were split into two cryovials prior to freezing at −70° C.
The PK analysis was performed as follows. […] PK parameters were calculated on plasma concentration time data by non-compartmental analysis using Kinetica version 4.3 software (Innaphase, Champs sur Marne, France). AUC was calculated by the mixed log-linear rule: the linear rule was applied to the range where concentration was ascending and the log-linear rule was applied to the range where the concentration was descending. AUClast is the area from t=0 to tlast, the last sampling time. AUCextra is the extrapolated area from AUClast to infinity and AUCtotal=AUClast+AUCextra and is also named AUC0-∞ area under the concentration-time curve from time zero to infinity. The terminal rate constant λz was calculated on at least three points on the elimination curve with values greater than the lower limit of quantitation. […] Table 5 lists the areas, Cmax, and half-life for the metabolite 17-AG (mean±one standard deviation). […] There was no dose dependency for half-life, clearance or distributive volumes for these dose administrations.

multiple myeloma = assay: Anti-myeloma response (Bladé criteria) in the dose escalating trial; type: in vivo, human
Experimental: The method of the invention was tested in an open-label, dose escalating clinical trial.
Disease response evaluations were performed following every two cycles of treatment (approximately every 6 weeks). The determination of anti-tumor efficacy in stable or responding patients was based on objective tumor assessments made according to a standardized myeloma response assessment system.
All patients with responding tumors (CR or PR) were examined to confirm the response 6 weeks after the first documentation of response.

Hsp70 = assay: Immunoblot of peripheral blood leukocytes for client proteins; type: in vivo, human
Description: These toxicities included hepatotoxicity and gastrointestinal toxicities. The laboratory correlates included a) surface expression of insulin-like growth factor receptor-1 (IGF-1R) and b), total expression of Akt, Hsp90 and Hsp70. […] Immunoblotting analyses were used to evaluate the total levels of Akt, Hsp90 and Hsp70. […]; and b) correlation of clinical responses to 17-AAG with the degree of modulation of the biomarkers. […] Finally, peripheral blood mononuclear cells were isolated on two occasions (the first and last infusion in Cycle 1, on Days 1 and 11) prior to and 4 hours following the infusion. Cells were examined for change in client protein expression by Western Blot. Client proteins of interest include Hsp70, RAF1, LCK and CDK4 and others as indicated.

solid tumors = conditions: adult patients with solid tumors; cited from earlier work
cell kill = conditions: in vitro and in vivo xenograft models; cited from earlier work
[2] = system: solid tumors and lymphomas; conditions: patients with solid tumors and lymphomas; cited from earlier work
Raf-1 = conditions: at 24 hours; cited from earlier work
[3] = system: diffuse GFP positive MM lesions; conditions: survival analysis; cited from earlier work
[4] = system: SKBr3 breast cancer cells; conditions: exposure to 17-AAG; cited from earlier work
breast cancer cells = conditions: exposure to 17-AAG; cited from earlier work
[5] = system: MEXF 276 L melanoma cells; conditions: exposure to 17-AAG; cited from earlier work
[6] = system: colon adenocarcinoma cells; conditions: exposure to 17-AAG; cited from earlier work
leukemia cells = conditions: exposure to 17-AAG; cited from earlier work
[7] = system: lung cancer cells with wild-type Rb; conditions: exposure to 17-AAG; cited from earlier work
NSCLC cells = conditions: exposure to 17-AAG; cited from earlier work
[8] = daily for 5 days every 3 weeks; cited from earlier work
[9] = weekly 17-AAG, 3 weeks out of a 4 week cycle; cited from earlier work
[10] = dose levels studied; cited from earlier work
AKT = assay: AKT+ cells in bone marrow aspirates

## C=CCNC1=C2C[C@@H](C)C[C@H](OC)[C@H](O)[C@@H](C)/C=C(\C)[C@H](OC(N)=O)[C@@H](OC)/C=C\C=C(/C)C(=O)NC(=CC1=O)C2=O [17-AAG, 17-Allylamino-17-demethoxygeldanamycin]
[1]; 220 mg/m^2, the two patients with metabolite in trough levels on Day 11
  clearance CL for 17-AAG, individual patients: 16.8 L/h/m^2 and 17.3 L/h/m^2
[1]; 220 mg/m^2 cohort
  clearance CL for 17-AAG, average for the cohort: 25.3±9.6 L/h/m^2
[1]; 17-AAG 150 mg/m^2, mean ± SD
  AUCtotal: 5,592 ± 757 ng/mL * h
  Terminal T1/2: 2.19 ± 0.58 h
  Vss: 170.9 ± 41.7 L
  clearance: 915.3 ± 113 mL/min
[1]; 17-AAG 220 mg/m^2, mean ± SD
  AUCtotal: 9,460 ± 3,788 ng/mL * h
  Vss: 139.1 ± 45.7 L
  Vz: 171.0 ± 67.1 L
[1]; 17-AAG 275 mg/m^2, mean ± SD
  AUCtotal: 13,803 ± 1,540 ng/mL * h
  Vz: 159.6 ± 54.4 L
[1]; 17-AAG 340 mg/m^2, mean ± SD
  AUCtotal: 18,997 ± 4,195 ng/mL * h
  Vz: 174.0 ± 71.2 L
[1]; 17 patients, first vs fourth infusion
  change of AUCtotal between Day 1 and Day 11: no increase in AUCtotal between Day 1 and Day 11
[1]; 150-340 mg/m^2 17-AAG
  dose proportionality of Cmax: increased in an approximately dose proportional manner
[1]; human, in vivo
  half-life: 2.19 to 3.68 h
[1]; human, in vivo, 150 mg/m2
  AUC(0-t): 5300 ng·h/mL
  Cmax: 2400 ng/mL
[1]; human, in vivo, 150 mg/m2, Vz, 17-AAG 150 mg/m^2, mean ± SD
  Vd: 170 ± 30.3 L
[1]; human, in vivo, 220 mg/m2
  AUC(0-t): 9160 ng·h/mL
  half-life: 2.68 ± 0.99 h
  Cmax: 4670 ng/mL
[1]; human, in vivo, 220 mg/m2, Clearance, 17-AAG 220 mg/m^2, mean ± SD
  clearance: 780 mL/min
[1]; human, in vivo, 275 mg/m2
  AUC(0-t): 13400 ng·h/mL
  half-life: 2.96 ± 1.34 h
  Cmax: 6820 ng/mL
[1]; human, in vivo, 275 mg/m2, Clearance, 17-AAG 275 mg/m^2, mean ± SD
  clearance: 661 mL/min
[1]; human, in vivo, 275 mg/m2, Vss, 17-AAG 275 mg/m^2, mean ± SD
  Vd: 123 ± 23.4 L
[1]; human, in vivo, 340 mg/m2
  AUC(0-t): 18700 ng·h/mL
  half-life: 3.3 ± 0.83 h
  Cmax: 9360 ng/mL
[1]; human, in vivo, 340 mg/m2, Clearance, 17-AAG 340 mg/m^2, mean ± SD
  clearance: 595 mL/min
[1]; human, in vivo, 340 mg/m2, Vss, 17-AAG 340 mg/m^2, mean ± SD
  Vd: 101 ± 27.7 L
[1]; human, in vivo, CL, present study, overall
  clearance: 792 mL/min
[1]; human, in vivo, Total systemic clearance, range of cohort means, across dose administrations
  clearance: 636 to 915 mL/min
[1]; human, in vivo, distributive volume (Vss), range of cohort means, across dose administrations
  Vd: 123 to 171 L
[1]; human, in vivo, distributive volume (Vz), range of cohort means, across dose administrations
  Vd: 160 to 204 L
[1]; present study, overall
  Vss: 144.45 ± 43.51 L
Multiple myeloma; 150 mg/m^2 twice weekly 2 of 3 weeks, four evaluable patients
  disease response: One showed a MR; also recorded: one patient had a MR, two had stable disease and one had progressive disease
Multiple myeloma; 220 mg/m^2 twice weekly 2 of 3 weeks, seven evaluable patients
  disease response: four are stable disease and three are progressive disease; also recorded: four patients had stable disease and three had progressive disease
Multiple myeloma; 275 mg/m^2 twice weekly 2 of 3 weeks, three evaluable patients
  disease response: all three had stable disease
Multiple myeloma; 340 mg/m^2 twice weekly 2 of 3 weeks, five evaluable patients
  disease response: two patients had stable disease and three had progressive disease
Multiple myeloma; 19 evaluable patients, after three or more cycles
  percent of patients with stable disease: 58%
Multiple myeloma; 19 evaluable patients, all dose levels
  percent of patients with response (MR): 5%
Multiple myeloma; one patient considered a PR, withdrawn for skin rash and wheezing
  reduction of urine M-protein: 90%
Multiple myeloma; one patient, 150 mg/m^2, after two cycles (MR), FIG. 12
  reduction of urine M-protein: 41%
Multiple myeloma; one patient, 275 mg/m^2, after eight cycles (stable disease), FIG. 13
  reduction of serum M-spike: 11%
Hsp70; 220 mg/m^2 cohort, following treatment
  Hsp70 in peripheral blood leukocytes: reactive induction of Hsp70
Hsp70; two patients (275 and 340 mg/m^2), prior to and 4 h after infusion, Day 1 and Day 11
  Hsp70 in PBL, immunoblot: increase of Hsp70
Solid tumors
  objective tumor responses: No objective tumor responses were observed
Cell kill
  concentrations needed to achieve cell kill: 10 to 500 nM
[2]
  objective tumor responses: No objective tumor responses have been observed
Raf-1
  patients with Raf-1 depletion in tumor biopsies: 4 out of 6
[3]
  median overall survival: significantly prolonged median overall survival
[4]
  effect on client proteins: depletion of erbB2 and destabilization of Raf-1 and mutant p53
Breast cancer cells
  effect on client proteins: depletion of steroid receptors
[5]
  effect on client proteins: depletion of Hsp90 and down-regulation of Raf-1 and erbB2
[6]
  effect on client proteins: depletion of Raf-1, c-Akt, and Erk1/2
Leukemia cells
  effect on client proteins: down-regulation of intracellular Bcr-Ab1 and c-Raf proteins and reduction of Akt kinase activity
[7]
  effect on client proteins: degradation of cdk4, cdk6, and cyclin E
NSCLC cells
  effect on client proteins: depletion of erbB 1 (EGFR) and erbB2 (p185) levels
[8]
  maximum tolerated dose (MTD) and recommended Phase 2 dose: 40 mg/m^2
[9]
  MTD: 308 mg/m^2
[10]
  relation of dose and area under the curve (AUC): linear correlation
AKT; Day 11 of treatment (more than 20% prior to treatment), p=0.057, FIG. 10
  percent of AKT+ cells over total BM cells: less than 10%
AKT; Day 11 versus prior to treatment
  decrease in percent of AKT+ cells: more than 10%
AKT; screening versus Day 11, 150 and 220 mg/m^2 doses
  Akt / pAKT in BMAs: decreased Akt; also recorded: decrease in pAKT
